Test results from patent US8822430B2 (Gilead Sciences, Inc., priority 2009, dated 2014).
Like-named read-outs stand apart in the source and are kept apart here.

Tested on: HCV 1b RLuc cells (dicistronic genotype 1b Con1 replicon)
Experiment: Renilla luciferase (RLuc)-based HCV replicon reporter assay
Assay type: cell-based, HCV genotype 1b
Conditions: read-out: Activity (antiviral potency [EC50])
Summary of the method: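 EC50 values were calculated by non-linear regression of Renilla luciferase signal from lysed cells after 72 h of compound exposure. Cells harboured a genotype 1b Con1 dicistronic replicon encoding RLuc. Compounds were serially diluted in DMSO from 10 mM stocks into culture media.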

[1] = Hepatitis C virus, 72 h, HCV 1b RLuc replicon, 72 hours

COC(=O)N[C@H](C(=O)N1CCC[C@H]1C(=O)Nc1ccc(NC(=O)c2ccc(NC(=O)[C@@H]3CCCN3C(=O)[C@@H](NC(=O)OC)C(C)C)cc2)cc1)C(C)C
EC50 (Hepatitis C virus, 72 h): 37.8 nM

COC(=O)N[C@H](C(=O)N1CCC[C@H]1c1ncc(-c2ccc(-c3ccc(-c4cnc([C@@H]5CN(C(C)=O)CN5C(=O)[C@@H](NC(=O)OC)C(C)C)[nH]4)cc3)cc2)[nH]1)C(C)C
EC50 [1]: 0.0852 nM

COC(=O)N[C@H](C(=O)N1CCC[C@H]1c1ncc(C#CC#Cc2cnc([C@@H]3CCCN3C(=O)[C@@H](NC(=O)OC)C(C)C)[nH]2)[nH]1)C(C)C
EC50 [1]: 1.33 nM

COC(=O)N[C@H](C(=O)N1CCC[C@H]1c1nc2ccc(-c3ccc(-c4ccc5nc([C@@H]6CCCN6C(=O)[C@@H](NC(=O)OC)C(C)C)[nH]c5c4)cc3)cc2[nH]1)C(C)C
EC50 [1]: 0.0099 nM

COC(=O)NC(C(=O)N1CCC[C@H]1c1ncc(-c2ccc(-c3ccc(-c4cnc([C@@H]5CCCN5C(=O)[C@@H](NC(=O)OC)C(C)C)[nH]4)cc3)c3ccccc23)[nH]1)C(C)C (stereo partly shown)
EC50 [1]: 0.0067 nM

COC(=O)N[C@H](C(=O)N1CCC[C@H]1c1ncc(-c2ccc(-c3ccc(-c4cnc(CN5CC(=O)N[C@@H](C(C)C)C5=O)[nH]4)cc3)cc2)[nH]1)C(C)C
EC50 [1]: 0.513 nM

COC(=O)N[C@H](C(=O)N1CCC[C@H]1C(=O)Nc1cccc(-c2ccc(-c3ccc(-c4cnc([C@@H]5CCCN5C(=O)[C@@H](NC(=O)OC)C(C)C)[nH]4)cc3)cc2)c1)C(C)C
EC50 [1]: 0.0111 nM

COC(=O)N[C@H](C(=O)N1CCC[C@H]1c1ncc(-c2ccc3cc(-c4cnc([C@@H]5CCCN5C(=O)[C@@H](NC(=O)OC)C(C)C)[nH]4)ccc3c2)[nH]1)C(C)C
EC50 (Hepatitis C virus, GETYPE1B, 72 h, HCV 1b RLuc replicon, 72 hours): 0.0511 nM

COC(=O)N[C@H](C(=O)N1CCC[C@H]1c1ncc(-c2ccc(-c3ccc(-c4cnc([C@@H]5CSC(c6ccncc6)N5C(=O)OCc5ccccc5)[nH]4)cc3)cc2)[nH]1)C(C)C (single isomer, unassigned) [drawing 1301]
EC50 (HCV 1b RLuc replicon, 72 hours): 0.0765 nM

COC(=O)N[C@H](C(=O)N1CCC[C@H]1c1ncc(-c2ccc(-c3ccc(-c4cnc([C@@H]5CSC(c6ccncc6)N5C(=O)OCc5ccccc5)[nH]4)cc3)cc2)[nH]1)C(C)C (single isomer, unassigned) [drawing 1302]
EC50 (HCV 1b RLuc replicon, 72 hours): 0.0209 nM
